According to patent publication US20240208896A1, “PRODRUGS OF KV7 CHANNEL OPENERS” (Xyzagen, Inc., priority 2021, published 2024):
Where two headings read alike, the source gives them in different places.

Legend:
[1] = Solvent solubility assessment by visual inspection; type: physicochemical
Experimental: Compounds were weighed and placed into a 4 dram vials and solvents were added to the target concentration. Compounds were vortex and visually inspected for particulates and considered soluble if clear upon visual inspection with and without magnification. Solubility was reported as either greater than (>) or less than (<) from the prepared concentration. […] It was evaluated at 10 mg/mL in 0.1 N NaCl and was freely soluble. It was evaluate at 1 mg/mL in 0.1 N NaOH and 0.1 N Na2HPO4 and was freely soluble. In ethanol and methanol it was freely soluble at a concentration of 75 mg/mL. […] It was freely soluble at 75 mg/mL in methanol and ethanol. It was soluble at 1 mg/mL in 1N HCl.

[2] = Benchtop solvent stability exposed to light, HPLC-UV 230 nm, up to 7 days; type: physicochemical; conditions: over 4 days
Experimental: Compounds in solvent were left on the benchtop exposed to light for up to 7 days since it is known that Compound 1 will degrade with light within 3-7 days.
Stability was assessed by taking an aliquot from the solubility vials at each test day. A single replicate was injected for each test condition.
Samples were injected onto an HPLC system with an aqueous mobile phase and acetonitrile organic phase and compounds were separated on a C8 50×2 mm column. Wavelength 230 nm was monitored for absorption and integrated for peak area while the mass spectrometer was used to confirm mass. Samples were tested on Day 1 and on subsequent days through Day 7.

[3] = 1000 ng/mL
Experimental: Plasma was collected by the biomaterial vendor and kept frozen at −20° C.
The samples were analyzed by HPLC separation and mass spectrometry detection for prodrug amount, relative to a baseline time 0 control sample. Triplicate samples were generated at each time point and the peak area response was averaged and converted to a percent of baseline control.

[4] = Pharmacokinetics of ezogabine prodrugs in rat (IV, IM, PO); conditions: rat, in vivo, po
Experimental: Blood was diluted by 10% with these stabilizers.
Extraction of the molecules was conducted by taking a 50 uL aliquot of plasma and adding 200 uL of acetonitrile containing 200 ng/mL tolbutamide as the internal standard. Samples were precipitated in a 96 well plate, centrifuges and an aliquot transferred to a new plate, dried down under heat and nitrogen and then reconstituted in the initial mobile phase conditions of the LC-MS/MS method. […] A standard curve was prepared from 5000 ng/mL to 1 ng/mL for each analyte. Concentration data from the bioanalytical run was analyzed by Phoenix Winnonlin version 8 for noncompartmental PK analysis, plotting of concentration time curves and tabulation of PK parameters.
150 uL of blood were collected at predesignated time points. At completion of the study animals were asphyxiated by carbon dioxide gas and exsanguinated for euthanasia.

Human Kv7.2/7.3 = Human Kv7.2/7.3 (Homo sapiens, UniProt O43525+O43526); assay: In vitro screen of Kv7.2/7.3 voltage gated potassium channels (FluxOR, FLIPR); type: cell-based; conditions: Human Kv7.2/7.3 cells; FluxOR fluorescence; 0.03 to 30 μM
Experimental: Human Kv7.2/7.3 cells are harvested, counted and seeded in black, clear-bottomed 96 well plates at a density of 50,000 cells per well in 100 μl volume and incubated overnight. The following day, media was removed and 40 μl of loading buffer (4.895 mL HBSS:HEPES, 50 μL probenecid, 50 μL power load, 5 μl FluxOR reagent) was added and incubated at room temperature for 30 minutes. After incubation loading buffer was removed and 40 μl of assay buffer added (4.45 ml HBSS:HEPES, 500 μl FluxOR assay buffer and 50 μL probenecid) and incubated for 10 minutes.

[5] = tested on: MES induced seizures in Rat; assay: SD rat MES test after IM administration; type: in vivo; conditions: SD rats, IM 75 mg/kg
Experimental: All treatments were at 0.083, 0.25, 0.5, 1, 2, 4, and 8 hours prior to the administration of MES test, where 6 seconds where 6 seconds without a seizure was considered protected.

[6] = Rat PK at equimolar dose to Ezogabine (20 mg/kg) in 0.5% methylcellulose; conditions: male cannulated rats; equimolar to Ezogabine 20 mg/kg; 0.5% methylcellulose; analyte the dosed prodrug
Experimental: (§1) Blood samples were collected at the same time points over 24 hours to generate a concentration time profile. Two male rats were dosed per group. Plasma samples were analyzed by LC/MS/MS and the resulting concentration time profiles and PK parameters are provided.
as §1, §1

[7] = tested on: formalin inflammatory model; assay: Formalin inflammatory pain model (hind paw flick/lick); type: in vivo; conditions: male CD-1 mouse; 100 mg/kg SC 30 minutes before 5% formalin; both phases (0-10 and 15-40 min)
Experimental: Compound 4 was assessed in the […] formalin inflammatory model. The number of flicks/licks of a male CD-1 mouse in the acute phase 0-10 minute and the inflammatory phase from 15-40 min after intraplantar administration of 50 μL of 5% formalin was recorded. […] Data is presented over the duration of the observation periods in 2 minute bins.

[8] = Acid and organic solution stability, HPLC-UV 250 nm; conditions: 5 mg/mL
Experimental: An HPLC-UV Vis method was developed using 0.1% Formic acid in water as mobile phase A and 0.1% Formic acid in acetonitrile as mobile Phase B. A gradient method was developed ramping from 10% A to 90% B over 8 minutes and then returning to 10% A at 8.5 minutes on a 4.6×50 mm Zorbax C-18 column. Injections of 10 uL of stability solutions were injected for analyte detection.
[…] Aliquots were collected at serial time points and then diluted to a nominal concentration of 100 ug/mL for injection to the HPLC and 250 nm monitored by the diode array detector. Data at approximately 10 days is presented.
Aliquots were collected at serial time points and then diluted to a nominal concentration of 100 ug/mL for injection to the HPLC and 250 nm monitored by the diode array detector.
(§2) It was also evaluated at 2 N HCl at 37° C. Aliquots were collected at serial time points and then diluted to a nominal concentration of 100 ug/mL for injection to the HPLC and 250 nm monitored by the diode array detector.
as §2, §2, §2

Sequence of Human Kv7.2/7.3 (O43526 whole entry): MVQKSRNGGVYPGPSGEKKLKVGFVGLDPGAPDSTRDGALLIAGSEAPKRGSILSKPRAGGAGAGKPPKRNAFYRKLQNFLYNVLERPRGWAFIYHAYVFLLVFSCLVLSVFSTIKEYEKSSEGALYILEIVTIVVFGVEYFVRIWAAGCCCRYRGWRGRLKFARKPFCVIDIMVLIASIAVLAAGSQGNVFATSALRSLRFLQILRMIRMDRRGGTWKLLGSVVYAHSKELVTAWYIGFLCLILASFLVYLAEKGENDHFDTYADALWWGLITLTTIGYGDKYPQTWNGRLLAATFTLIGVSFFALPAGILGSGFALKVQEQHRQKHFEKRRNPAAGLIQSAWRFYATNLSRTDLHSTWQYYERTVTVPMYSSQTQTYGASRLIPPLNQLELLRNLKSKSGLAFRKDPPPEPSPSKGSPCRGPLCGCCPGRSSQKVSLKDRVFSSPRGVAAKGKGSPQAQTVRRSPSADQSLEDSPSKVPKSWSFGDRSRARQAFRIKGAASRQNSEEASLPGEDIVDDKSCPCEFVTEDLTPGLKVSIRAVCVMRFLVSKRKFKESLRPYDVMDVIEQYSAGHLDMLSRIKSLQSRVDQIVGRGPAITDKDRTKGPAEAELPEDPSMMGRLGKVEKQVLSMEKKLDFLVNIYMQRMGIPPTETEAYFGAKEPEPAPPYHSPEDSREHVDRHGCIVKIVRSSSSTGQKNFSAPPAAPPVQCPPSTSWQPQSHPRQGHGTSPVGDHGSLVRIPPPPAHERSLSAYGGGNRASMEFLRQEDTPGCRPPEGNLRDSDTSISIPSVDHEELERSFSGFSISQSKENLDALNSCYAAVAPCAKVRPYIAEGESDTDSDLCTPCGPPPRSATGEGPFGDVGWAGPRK
Sequence of Human Kv7.2/7.3 (O43525 whole entry): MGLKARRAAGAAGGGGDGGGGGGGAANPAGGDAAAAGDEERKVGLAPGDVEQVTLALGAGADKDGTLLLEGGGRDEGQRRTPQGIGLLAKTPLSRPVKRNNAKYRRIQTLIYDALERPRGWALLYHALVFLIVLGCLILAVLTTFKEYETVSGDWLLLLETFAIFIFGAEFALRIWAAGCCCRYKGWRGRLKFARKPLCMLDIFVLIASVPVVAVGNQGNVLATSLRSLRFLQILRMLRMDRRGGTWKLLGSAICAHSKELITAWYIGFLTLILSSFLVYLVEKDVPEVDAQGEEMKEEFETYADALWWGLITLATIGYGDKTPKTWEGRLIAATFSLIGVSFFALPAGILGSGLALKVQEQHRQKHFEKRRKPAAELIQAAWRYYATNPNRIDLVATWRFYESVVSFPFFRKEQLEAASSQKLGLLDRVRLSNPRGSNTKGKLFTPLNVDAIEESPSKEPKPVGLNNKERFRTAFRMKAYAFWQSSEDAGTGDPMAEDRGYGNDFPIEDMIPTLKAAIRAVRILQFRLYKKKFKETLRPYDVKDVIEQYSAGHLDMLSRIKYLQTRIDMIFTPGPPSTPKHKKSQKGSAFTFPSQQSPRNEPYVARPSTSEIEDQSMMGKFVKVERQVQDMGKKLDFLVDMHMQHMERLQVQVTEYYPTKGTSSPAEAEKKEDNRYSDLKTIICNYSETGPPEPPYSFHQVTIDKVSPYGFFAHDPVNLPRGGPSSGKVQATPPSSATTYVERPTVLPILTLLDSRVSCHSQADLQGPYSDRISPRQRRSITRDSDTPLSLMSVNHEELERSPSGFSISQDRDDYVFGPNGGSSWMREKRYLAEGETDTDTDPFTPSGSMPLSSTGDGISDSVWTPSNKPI

With `CCOC(=O)Nc1ccc(NCc2ccc(F)cc2)cc1NC(=O)[C@@H](N)CCCCN` [Compound 4] the Solubility ([1]; 0.1N HCl) was greater than 20 mg/mL, the Solubility ([1]; 0.1 N Na2HPO4, aqueous buffer, thermodynamic from solid, read-out: Solubility (freely soluble at tested concentration)) was greater than 1 mg/mL and the Solubility ([1]; 0.1N NaCl) was greater than 10 mg/mL. It also gave a Solubility ([1]; 0.1 N NaCl, saline or isotonic, thermodynamic from solid, read-out: Solubility (freely soluble at tested concentration)) greater than 10 mg/mL, a Solubility ([1]; 0.1N NaOH) greater than 1 mg/mL and a Solubility ([1]; 0.1 N NaOH, aqueous buffer, thermodynamic from solid, read-out: Solubility (freely soluble at tested concentration)) greater than 1 mg/mL. It also gave a Solubility ([1]; 0.1 Na2HPO4) greater than 1 mg/mL, a Solubility ([1]; Ethanol) greater than 75 mg/mL and a Solubility ([1]; Methanol) greater than 75 mg/mL. For the same compound, the Solubility ([1]; Water) was greater than 20 mg/mL, the Solubility ([1]; ethanol, organic solvent or mixture, thermodynamic from solid, read-out: Solubility (freely soluble at tested concentration)) was greater than 75 mg/mL and the Solubility ([1]; methanol, organic solvent or mixture, thermodynamic from solid, read-out: Solubility (freely soluble at tested concentration)) was greater than 75 mg/mL. The Solubility ([1]; saline or isotonic, 0.9% w/v NaCl, for in vivo studies, read-out: Solubility (formulated as freely soluble solution)) was no less than 150 mg/mL, the Solubility ([1]; simulated gastric fluid, thermodynamic from solid, 0.1N HCl, read-out: Solubility (freely soluble at tested concentration)) was greater than 20 mg/mL and the Solubility ([1]; water, thermodynamic from solid, read-out: Solubility (freely soluble at tested concentration)) was greater than 20 mg/mL. For the same compound, the “Reduction in peak area” value ([2]; 0.1N NaOH) was greater than 50%, the Stability in solvent ([2]; all test conditions except 0.1 N NaOH) was “appears stable” and the “Time by which prodrug is degraded in plasma” value ([3]; mouse) was no more than 6 h. For the same compound, the Plasma stability ([3]; rat, 6 h) was “stable through 6 hours”, the “Percent remaining in plasma” value ([3]; rat, plasma, 23 h) was “below 50%” and the “Exposure of the prodrug itself in systemic circulation” value [4] was “slightly more detectable”. The “Activity against the primary target of Kv7.2/7.3” value (Human Kv7.2/7.3) was “inactive”, the “Protection from MES induced seizures” value ([5]; 2 through 8 hours post dose) was “fully protected” and the “Protection from MES induced seizures” value ([5]; 1 h post dose) was “almost fully protected”. For the same compound, the AUClast/D [6] was 6.26 ng·h/mL/mg/kg, the Cmax/D [6] was 2.34 ng/mL/mg/kg and the “Reduction in behavioral response (flicks/licks) compared to vehicle” value [7] was 50%. For the same compound, the “Colour of stability solution” value [8] was “remained clear and colorless through Day 18”, the “Ezogabine Area (formed from the prodrug)” value ([8]; 0.1N HCl, room temp., normal light, 269 h) was 0 mAU and the “Ezogabine Area (formed from the prodrug)” value ([8]; 1N HCl, room temp., normal light, 269 h) was 0 mAU. For the same compound, the “Ezogabine Area (formed from the prodrug)” value ([8]; 2N HCl 37C, 436 h) was 167 mAU, the “Ezogabine Area (formed from the prodrug)” value ([8]; 2N HCl, room temp., normal light, 269 h) was 38 mAU and the “Ezogabine Area (formed from the prodrug)” value ([8]; Methanol, room temp., normal light, 437 h) was 0 mAU. For the same compound, the “Ezogabine Area (formed from the prodrug)” value ([8]; PBS, room temp., normal light, 435 h) was 0 mAU, the “Degradation / conversion to ezogabine in solution” value ([8]; acidic solutions and organic solvents, up to 3 weeks) was “very little degradation to ezogabine” and the “% Remaining” value ([8]; 437 h) was 98.5%. For the same compound, the “% Remaining” value ([8]; buffer, 435 h) was 99.2% and the “% Remaining” value ([8]; buffer, 436 h) was 94.9%.
